Test results reported in ChEMBL document CHEMBL1201862, “PubChem BioAssay data set” (2004).
Activity calls are given as the source filed them.

How the values were obtained:
[1] = biological target: Bcl-2-like protein 10 (Homo sapiens, UniProt Q9HD36); assay: displacers of TR3 peptide from Bcl-B, primary screen, selectivity assay for Bfl-1 inhibitor project, biochemical, fluorescence polarization, FITC-TR3 peptide (AID 748);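 note: fluorescence polarization from a fluorescein-labelled TR3 peptide binding purified Bcl-B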
Bcl-2-like protein 10, sequence (Q9HD36 whole entry): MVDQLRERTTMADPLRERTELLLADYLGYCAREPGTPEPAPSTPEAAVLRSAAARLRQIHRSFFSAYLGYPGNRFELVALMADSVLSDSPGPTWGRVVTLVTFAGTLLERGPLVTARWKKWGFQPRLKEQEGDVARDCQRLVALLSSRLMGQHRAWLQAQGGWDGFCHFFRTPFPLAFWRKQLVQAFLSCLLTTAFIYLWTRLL

[2] = polyadenylation inhibitors in yeast reporter, dose response, luminescence, S. cerevisiae SKY197-pL101 (AID 2525); format: functional, cell-based
[3] = Luminescence Cell-Based Dose Confirmation HTS to Identify Inhibitors of Polyadenylation.; format: functional
[4] = A Cell Based Secondary Assay To Explore Cytotoxicity of Compounds that Sensitize Mycobacterium Tuberculosis to Beta-Lactam Antibiotics.; format: functional
[5] = biological target: T1, Hexokinase HKDC1 (Homo sapiens, UniProt Q2TB90); assay: HKDC1 hexokinase inhibitors, dose response, biochemical, W721R variant (AID 504729); format: functional
T1 sequence (Q2TB90 whole entry): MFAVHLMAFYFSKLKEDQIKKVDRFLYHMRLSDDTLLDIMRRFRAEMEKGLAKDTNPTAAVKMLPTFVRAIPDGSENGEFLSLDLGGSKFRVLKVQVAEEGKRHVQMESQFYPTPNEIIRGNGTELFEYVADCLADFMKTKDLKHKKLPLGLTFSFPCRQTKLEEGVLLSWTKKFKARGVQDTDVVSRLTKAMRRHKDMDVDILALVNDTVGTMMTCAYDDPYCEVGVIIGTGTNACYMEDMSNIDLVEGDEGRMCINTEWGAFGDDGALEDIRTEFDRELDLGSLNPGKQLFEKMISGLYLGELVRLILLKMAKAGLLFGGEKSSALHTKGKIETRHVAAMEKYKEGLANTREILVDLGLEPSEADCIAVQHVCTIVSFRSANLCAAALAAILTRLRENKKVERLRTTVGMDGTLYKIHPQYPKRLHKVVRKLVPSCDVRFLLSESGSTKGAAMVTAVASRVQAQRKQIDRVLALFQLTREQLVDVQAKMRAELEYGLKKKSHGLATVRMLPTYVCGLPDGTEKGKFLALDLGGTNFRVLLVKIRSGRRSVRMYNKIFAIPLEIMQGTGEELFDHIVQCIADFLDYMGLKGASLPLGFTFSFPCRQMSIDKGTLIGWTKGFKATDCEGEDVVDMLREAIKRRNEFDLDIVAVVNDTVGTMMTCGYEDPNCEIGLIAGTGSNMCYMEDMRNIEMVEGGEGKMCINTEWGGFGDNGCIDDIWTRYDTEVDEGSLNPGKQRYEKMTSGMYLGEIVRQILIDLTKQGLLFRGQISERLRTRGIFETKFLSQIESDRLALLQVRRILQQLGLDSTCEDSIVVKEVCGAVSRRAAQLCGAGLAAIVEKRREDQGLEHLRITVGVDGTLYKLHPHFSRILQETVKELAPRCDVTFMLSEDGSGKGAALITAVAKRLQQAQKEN

[6] = biological target: T2, Mannose-6-phosphate isomerase (Homo sapiens, UniProt P34949); assay: inhibitors of human PMI, primary screen, biochemical, fluorescence intensity, coupled assay (AID 1209)
T2 sequence (P34949 whole entry): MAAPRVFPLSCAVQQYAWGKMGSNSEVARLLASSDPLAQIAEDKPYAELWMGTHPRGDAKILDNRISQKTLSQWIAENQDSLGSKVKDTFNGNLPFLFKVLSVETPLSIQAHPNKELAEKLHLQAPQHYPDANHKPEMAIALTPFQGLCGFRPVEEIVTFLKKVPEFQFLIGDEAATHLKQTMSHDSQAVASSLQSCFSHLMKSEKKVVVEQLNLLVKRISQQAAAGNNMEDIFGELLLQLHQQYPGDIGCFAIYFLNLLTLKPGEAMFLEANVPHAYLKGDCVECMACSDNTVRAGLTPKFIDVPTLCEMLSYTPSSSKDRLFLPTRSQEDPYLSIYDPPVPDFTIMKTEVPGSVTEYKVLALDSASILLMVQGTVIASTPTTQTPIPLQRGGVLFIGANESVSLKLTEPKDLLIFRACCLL

[7] = biological target: T3, Rac GTPase-activating protein 1 (Homo sapiens, UniProt Q9H0H5); assay: MgcRacGAP GTPase-activating activity inhibitors, confirmation, biochemical, ADP Hunter fluorescence, primary and confirmatory (AID 624330); format: functional
T3 sequence (Q9H0H5 whole entry): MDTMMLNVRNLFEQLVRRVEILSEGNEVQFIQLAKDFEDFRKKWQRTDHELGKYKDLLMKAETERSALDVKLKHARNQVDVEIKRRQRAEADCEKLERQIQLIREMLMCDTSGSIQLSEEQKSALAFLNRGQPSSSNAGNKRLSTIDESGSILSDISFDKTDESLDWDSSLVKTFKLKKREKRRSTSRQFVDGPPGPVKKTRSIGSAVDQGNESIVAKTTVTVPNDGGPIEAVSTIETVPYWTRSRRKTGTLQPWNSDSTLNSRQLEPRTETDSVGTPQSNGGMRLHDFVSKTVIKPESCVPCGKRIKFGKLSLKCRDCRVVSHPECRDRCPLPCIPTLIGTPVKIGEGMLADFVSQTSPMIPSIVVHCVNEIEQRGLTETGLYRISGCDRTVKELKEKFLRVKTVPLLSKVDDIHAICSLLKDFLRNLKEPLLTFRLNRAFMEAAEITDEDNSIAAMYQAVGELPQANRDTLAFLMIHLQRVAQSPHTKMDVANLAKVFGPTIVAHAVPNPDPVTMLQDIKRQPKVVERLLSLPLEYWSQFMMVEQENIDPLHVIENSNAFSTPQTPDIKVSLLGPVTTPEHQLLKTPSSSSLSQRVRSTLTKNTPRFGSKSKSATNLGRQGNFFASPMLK

[8] = cells
[9] = biological target: Transitional endoplasmic reticulum ATPase (Homo sapiens, UniProt P55072, C522A); assay: C522A mutant p97 ATPase inhibitors, dose response, counter-screen for p97 inhibitor project, biochemical, luminescence (AID 1544)
Transitional endoplasmic reticulum ATPase (Homo sapiens, UniProt P55072, C522A), sequence (P55072 2-806 C522A limits assumed): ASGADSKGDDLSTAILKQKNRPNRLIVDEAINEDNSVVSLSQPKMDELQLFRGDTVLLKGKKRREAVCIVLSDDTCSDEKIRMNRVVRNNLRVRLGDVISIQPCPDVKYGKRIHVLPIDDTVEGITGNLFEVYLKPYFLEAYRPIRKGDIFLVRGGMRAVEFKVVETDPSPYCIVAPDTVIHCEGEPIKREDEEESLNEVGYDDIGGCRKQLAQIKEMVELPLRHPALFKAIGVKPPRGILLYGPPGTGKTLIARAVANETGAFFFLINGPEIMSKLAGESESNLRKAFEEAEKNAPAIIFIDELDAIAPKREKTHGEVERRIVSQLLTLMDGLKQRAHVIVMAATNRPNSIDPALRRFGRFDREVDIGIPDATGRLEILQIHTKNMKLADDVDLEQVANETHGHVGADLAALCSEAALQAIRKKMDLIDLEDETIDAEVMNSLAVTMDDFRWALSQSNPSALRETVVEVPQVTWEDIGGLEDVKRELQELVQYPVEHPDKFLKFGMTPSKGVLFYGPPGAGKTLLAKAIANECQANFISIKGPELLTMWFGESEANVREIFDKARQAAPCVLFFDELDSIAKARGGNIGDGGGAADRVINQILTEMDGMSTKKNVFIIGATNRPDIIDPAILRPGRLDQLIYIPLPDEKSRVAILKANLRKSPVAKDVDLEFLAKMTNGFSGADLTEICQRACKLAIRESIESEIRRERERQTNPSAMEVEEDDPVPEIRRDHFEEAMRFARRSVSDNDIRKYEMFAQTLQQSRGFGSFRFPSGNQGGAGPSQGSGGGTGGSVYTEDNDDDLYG

[10] = HEp-2 cell cytotoxicity, dose response, cytotoxicity control for RSV inhibitor project, HTS (AID 2410); format: functional; conditions: human respiratory syncytial virus
[11] = biological target: T4, High affinity choline transporter 1 (Homo sapiens, UniProt Q9GZV3); assay: CHT inhibitors, dose response, cell-based, 10-point CRC, membrane potential dye (AID 588401); format: functional;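 note: membrane potential dye fluorescence of choline-evoked depolarization via CHT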
T4 sequence (Q9GZV3 whole entry): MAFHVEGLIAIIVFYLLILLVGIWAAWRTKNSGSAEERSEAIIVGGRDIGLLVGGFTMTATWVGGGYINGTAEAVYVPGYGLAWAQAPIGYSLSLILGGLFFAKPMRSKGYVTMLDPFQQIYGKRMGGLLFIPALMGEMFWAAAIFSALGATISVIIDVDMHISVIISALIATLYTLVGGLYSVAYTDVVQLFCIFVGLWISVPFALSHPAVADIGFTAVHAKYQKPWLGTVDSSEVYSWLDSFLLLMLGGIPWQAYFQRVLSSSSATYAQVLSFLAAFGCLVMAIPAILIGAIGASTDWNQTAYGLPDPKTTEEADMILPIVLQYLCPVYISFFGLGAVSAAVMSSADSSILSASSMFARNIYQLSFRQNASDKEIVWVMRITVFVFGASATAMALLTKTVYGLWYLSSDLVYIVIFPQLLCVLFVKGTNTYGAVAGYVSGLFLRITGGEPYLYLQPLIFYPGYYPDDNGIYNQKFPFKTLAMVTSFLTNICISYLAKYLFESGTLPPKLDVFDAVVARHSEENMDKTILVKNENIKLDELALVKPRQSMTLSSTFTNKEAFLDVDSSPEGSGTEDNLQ

[12] = biological target: T4, High affinity choline transporter 1; assay: CHT inhibitors, dose response, cell-based, 5-point CRC, membrane potential dye (AID 504840); format: functional
[13] = biological target: Transitional endoplasmic reticulum ATPase (Homo sapiens, UniProt P55072); assay: p97 ATPase inhibitors, dose response, biochemical (AID 1534)
Transitional endoplasmic reticulum ATPase (Homo sapiens, UniProt P55072), sequence (P55072 whole entry): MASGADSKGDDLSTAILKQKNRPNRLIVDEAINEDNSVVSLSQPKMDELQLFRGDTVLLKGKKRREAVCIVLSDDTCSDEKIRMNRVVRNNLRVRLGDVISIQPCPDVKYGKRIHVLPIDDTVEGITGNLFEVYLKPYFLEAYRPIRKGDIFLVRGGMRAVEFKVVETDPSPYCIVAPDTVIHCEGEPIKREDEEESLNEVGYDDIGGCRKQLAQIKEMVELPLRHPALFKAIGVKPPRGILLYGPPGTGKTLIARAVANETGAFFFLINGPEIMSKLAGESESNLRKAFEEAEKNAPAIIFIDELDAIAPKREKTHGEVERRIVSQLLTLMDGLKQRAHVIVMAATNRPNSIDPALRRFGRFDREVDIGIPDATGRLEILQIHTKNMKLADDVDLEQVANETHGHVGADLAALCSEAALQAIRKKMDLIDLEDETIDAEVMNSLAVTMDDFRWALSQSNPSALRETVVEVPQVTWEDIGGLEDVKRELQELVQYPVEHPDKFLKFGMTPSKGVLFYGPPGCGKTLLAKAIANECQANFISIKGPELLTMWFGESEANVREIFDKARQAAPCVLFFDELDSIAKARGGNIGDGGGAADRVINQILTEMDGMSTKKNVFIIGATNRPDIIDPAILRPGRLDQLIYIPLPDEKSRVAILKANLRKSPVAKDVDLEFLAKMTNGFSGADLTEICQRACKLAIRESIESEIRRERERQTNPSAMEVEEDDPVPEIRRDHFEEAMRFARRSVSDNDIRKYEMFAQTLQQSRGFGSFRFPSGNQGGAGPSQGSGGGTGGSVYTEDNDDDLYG

[14] = biological target: T5, Estrogen receptor (Homo sapiens, UniProt P03372);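 note: potency for inhibiting coactivator peptide recruitment to the receptor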
T5 sequence (P03372 whole entry): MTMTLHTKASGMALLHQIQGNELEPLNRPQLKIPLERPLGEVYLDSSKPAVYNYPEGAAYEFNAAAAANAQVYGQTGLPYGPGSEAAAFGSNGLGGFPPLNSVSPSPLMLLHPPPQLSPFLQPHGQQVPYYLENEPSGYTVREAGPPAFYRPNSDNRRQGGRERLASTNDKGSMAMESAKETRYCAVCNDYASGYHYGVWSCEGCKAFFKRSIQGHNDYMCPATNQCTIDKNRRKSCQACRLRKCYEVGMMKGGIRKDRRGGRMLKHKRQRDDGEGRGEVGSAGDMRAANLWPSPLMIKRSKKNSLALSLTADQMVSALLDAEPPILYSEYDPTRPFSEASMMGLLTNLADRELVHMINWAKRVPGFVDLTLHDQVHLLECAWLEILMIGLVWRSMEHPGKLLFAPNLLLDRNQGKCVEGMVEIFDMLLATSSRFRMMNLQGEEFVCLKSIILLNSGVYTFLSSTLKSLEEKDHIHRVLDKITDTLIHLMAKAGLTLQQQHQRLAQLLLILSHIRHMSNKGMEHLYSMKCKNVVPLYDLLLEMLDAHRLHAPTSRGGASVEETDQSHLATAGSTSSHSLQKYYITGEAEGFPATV

[15] = biological target: T6, Estrogen receptor beta (Homo sapiens, UniProt Q92731); assay: ERβ–SRC-3 coactivator interaction inhibitors, confirmation, orthogonal assay, biochemical, ELISA, streptavidin-HRP readout (AID 1060)
T6 sequence (Q92731 whole entry): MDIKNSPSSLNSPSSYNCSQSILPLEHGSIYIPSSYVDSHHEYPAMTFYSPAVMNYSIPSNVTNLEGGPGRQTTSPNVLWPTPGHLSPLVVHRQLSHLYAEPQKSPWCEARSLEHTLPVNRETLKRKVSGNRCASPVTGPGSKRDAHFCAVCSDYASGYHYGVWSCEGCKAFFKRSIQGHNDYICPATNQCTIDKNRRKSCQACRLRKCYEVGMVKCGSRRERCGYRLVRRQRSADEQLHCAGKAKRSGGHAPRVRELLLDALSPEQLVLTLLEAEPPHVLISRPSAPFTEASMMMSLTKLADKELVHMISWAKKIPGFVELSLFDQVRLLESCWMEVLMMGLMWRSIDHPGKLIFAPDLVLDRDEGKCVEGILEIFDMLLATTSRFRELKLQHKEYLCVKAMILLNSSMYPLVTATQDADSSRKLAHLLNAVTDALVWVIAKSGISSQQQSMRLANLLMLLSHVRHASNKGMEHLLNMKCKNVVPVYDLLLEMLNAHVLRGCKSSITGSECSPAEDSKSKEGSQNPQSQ

[16] = biological target: T6, Estrogen receptor beta
[17] = biological target: T7, Eukaryotic translation initiation factor 2-alpha kinase 3 (Homo sapiens, UniProt Q9NZJ5); assay: Counterscreen assay for PERK inhibitors: Dose response cell-based high throughput screening assay to measure inhibition of PERK at 6 hours. [Related pubchem assays: 1522, 1416 ]; format: functional
T7 sequence (Q9NZJ5 whole entry): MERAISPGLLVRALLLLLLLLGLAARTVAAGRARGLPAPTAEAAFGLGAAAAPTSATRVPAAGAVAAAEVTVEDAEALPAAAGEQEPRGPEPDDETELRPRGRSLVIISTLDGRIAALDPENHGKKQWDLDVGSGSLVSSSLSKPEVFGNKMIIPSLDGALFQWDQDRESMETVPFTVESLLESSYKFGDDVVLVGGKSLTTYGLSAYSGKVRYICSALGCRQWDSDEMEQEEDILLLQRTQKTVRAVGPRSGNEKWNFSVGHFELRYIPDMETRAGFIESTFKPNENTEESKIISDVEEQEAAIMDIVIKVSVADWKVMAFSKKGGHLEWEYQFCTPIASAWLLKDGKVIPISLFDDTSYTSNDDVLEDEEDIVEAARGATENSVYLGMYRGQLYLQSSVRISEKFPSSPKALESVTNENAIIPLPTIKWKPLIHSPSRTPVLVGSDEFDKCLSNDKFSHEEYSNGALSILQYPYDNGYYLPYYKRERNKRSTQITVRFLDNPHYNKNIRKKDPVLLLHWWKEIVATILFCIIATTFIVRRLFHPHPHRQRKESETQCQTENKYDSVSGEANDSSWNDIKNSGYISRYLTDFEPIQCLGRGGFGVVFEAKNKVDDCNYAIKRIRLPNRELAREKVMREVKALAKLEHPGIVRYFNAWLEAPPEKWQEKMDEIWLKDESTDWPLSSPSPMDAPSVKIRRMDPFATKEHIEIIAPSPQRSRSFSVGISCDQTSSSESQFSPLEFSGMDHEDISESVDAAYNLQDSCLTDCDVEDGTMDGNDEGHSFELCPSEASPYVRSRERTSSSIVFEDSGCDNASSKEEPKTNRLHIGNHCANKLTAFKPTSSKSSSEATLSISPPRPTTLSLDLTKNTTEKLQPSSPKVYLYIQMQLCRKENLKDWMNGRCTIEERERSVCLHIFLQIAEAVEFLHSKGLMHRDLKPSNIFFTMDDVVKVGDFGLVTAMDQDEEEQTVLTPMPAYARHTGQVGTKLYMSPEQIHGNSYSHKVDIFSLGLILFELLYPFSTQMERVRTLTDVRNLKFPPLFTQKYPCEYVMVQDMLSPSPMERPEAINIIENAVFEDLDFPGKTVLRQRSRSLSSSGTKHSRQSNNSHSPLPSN

[18] = biological target: T7, Eukaryotic translation initiation factor 2-alpha kinase 3; assay: Dose response cell-based high-throughput screening assay to measure PERK inhibition. [Related pubchem assays: 1416 ]; format: functional
[19] = biological target: T2, Mannose-6-phosphate isomerase; assay: human PMI inhibitors, high substrate, primary screen, biochemical, fluorescence intensity, high mannose 6-phosphate (AID 1220)

Compound: COc1ccc(NC(=O)C2CCN(c3nc(C)nc4c3CCC4)CC2)cc1
- IC50 [1]: 33.8 µM (active)

Compound: Cc1ccc(Nc2c(-c3ccc(C)o3)nc3ncccn23)cc1
- EC50 [2]: > 500 µM (not active)
- EC50 [3]: 11.6 µM (active)

Compound: CCN(CC)c1ccc(NC(=O)c2cc(Cl)ccc2OC)cc1
- CC50 [4]: > 40 µM (active)

Compound: Cc1ccc(-c2nn3c(C)nnc3s2)cc1NC(=O)CSc1ccc(Cl)cc1
- EC50 [2]: 3.08 µM (active)
- EC50 [3]: 24.7 µM (active)

Compound: CCc1nc2sc3c(O)ncnc3c2c2c1CSC(C)(C)C2
- IC50 [5]: 26 µM (inactive)

Compound: CC(=O)Oc1ccc2c(=O)c(Oc3ccccc3)coc2c1OC(C)=O
- IC50 [6]: > 50 µM (not active)
- IC50 [7]: 108 µM (active)

Compound: CC(=O)Oc1cc2c3c(c1)/C(=C1/SC(=S)NC1=O)C(=O)N3C(C)(C)C=C2C
- IC50 [8]: 12.5 µM (active)
- IC50 [9]: > 50 µM (not active)
- CC50 [10]: 14.3 µM (active)
- IC50 [11]: 6.48 µM (active)
- IC50 [12]: 1.21 µM (active)
- IC50 [13]: > 50 µM (not active)

Compound: O=C(CSc1nnc(-c2ccc(OC(F)F)cc2)o1)NC(=O)NCc1ccco1
- IC50 [14]: 11.6 µM (active)
- IC50 [15]: > 109 µM (not active)
- IC50 [16]: 15.9 µM (active)

Compound: Cc1cccc(-n2nc([N+](=O)[O-])c(NC3CCN(Cc4ccccc4)CC3)[n+]2[O-])c1
- CC50 [4]: > 40 µM (active)

Compound: CC(=O)c1cc2c(cc1N)OCO2
- EC50 [17]: > 55.7 µM (not active)
- EC50 [18]: > 55.7 µM (not active)

Compound: Cc1ccc(-n2c(N)c(C(N)=O)sc2=S)c(C)c1
- IC50 [19]: > 50 µM (not active)
- IC50 [6]: > 50 µM (not active)

Compound: COc1ccc(-c2csc(NC(=O)CSc3nc(C)cs3)n2)cc1
- EC50 [17]: > 55.7 µM (not active)
- EC50 [18]: > 55.7 µM (not active)
